Legend:
[1] = molecular target: cAMP-dependent protein kinase catalytic subunit beta (Homo sapiens) (UniProt P22694); assay: Selectivity interaction (KinomeScan (DiscoverX)) EUB0001049a PRKACB; details: at 1 µM
[2] = molecular target: Tyrosine-protein kinase Fgr (Homo sapiens) (UniProt P09769); assay: Selectivity interaction (KinomeScan (DiscoverX)) EUB0001049a FGR; details: at 1 µM
[3] = molecular target: Homeodomain-interacting protein kinase 3 (Homo sapiens, UniProt Q9H422); assay: Selectivity interaction (Ambit KINOMEscan and KiNATiv profiling in Jurkat cells) EUB0000090b HIPK3; type: cell-based; details: at 1 µM
Sequence of Homeodomain-interacting protein kinase 3 (Q9H422 whole entry, looked up): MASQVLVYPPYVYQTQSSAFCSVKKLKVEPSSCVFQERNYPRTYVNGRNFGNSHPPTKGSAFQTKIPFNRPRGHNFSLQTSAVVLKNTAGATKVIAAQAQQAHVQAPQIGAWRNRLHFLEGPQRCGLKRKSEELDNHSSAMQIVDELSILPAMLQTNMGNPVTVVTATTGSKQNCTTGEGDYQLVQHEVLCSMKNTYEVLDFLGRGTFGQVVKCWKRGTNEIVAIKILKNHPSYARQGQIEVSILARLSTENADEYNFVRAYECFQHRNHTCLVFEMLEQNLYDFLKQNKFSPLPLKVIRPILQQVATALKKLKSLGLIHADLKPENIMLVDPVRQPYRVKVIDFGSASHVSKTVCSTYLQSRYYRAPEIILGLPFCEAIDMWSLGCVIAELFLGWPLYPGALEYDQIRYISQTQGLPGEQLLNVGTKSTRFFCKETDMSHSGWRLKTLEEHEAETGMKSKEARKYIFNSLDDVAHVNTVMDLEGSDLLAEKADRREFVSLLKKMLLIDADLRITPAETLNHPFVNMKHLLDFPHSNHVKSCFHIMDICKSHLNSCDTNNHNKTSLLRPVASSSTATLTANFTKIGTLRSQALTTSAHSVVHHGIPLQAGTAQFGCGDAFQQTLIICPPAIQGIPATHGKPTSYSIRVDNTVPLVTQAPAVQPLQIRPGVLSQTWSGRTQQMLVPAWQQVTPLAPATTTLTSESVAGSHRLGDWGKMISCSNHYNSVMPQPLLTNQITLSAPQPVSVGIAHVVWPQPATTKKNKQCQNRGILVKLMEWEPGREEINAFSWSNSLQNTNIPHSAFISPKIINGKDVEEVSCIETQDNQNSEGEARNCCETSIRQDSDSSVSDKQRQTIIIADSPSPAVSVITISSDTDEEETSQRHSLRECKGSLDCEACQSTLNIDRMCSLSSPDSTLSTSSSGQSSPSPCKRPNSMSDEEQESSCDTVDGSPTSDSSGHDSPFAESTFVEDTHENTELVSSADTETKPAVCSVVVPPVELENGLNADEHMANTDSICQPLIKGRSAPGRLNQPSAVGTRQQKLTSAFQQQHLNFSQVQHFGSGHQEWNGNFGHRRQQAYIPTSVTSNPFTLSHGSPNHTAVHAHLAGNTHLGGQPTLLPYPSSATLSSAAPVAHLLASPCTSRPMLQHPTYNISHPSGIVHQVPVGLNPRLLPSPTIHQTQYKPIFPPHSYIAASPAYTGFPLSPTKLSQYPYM

[4] = molecular target: T1, Tyrosine-protein kinase Mer (Homo sapiens) (UniProt Q12866); assay: Selectivity interaction (Kinase panel (Invitrogen)) EUB0000639a MERTK; details: at 200 nM
T1 sequence (whole entry): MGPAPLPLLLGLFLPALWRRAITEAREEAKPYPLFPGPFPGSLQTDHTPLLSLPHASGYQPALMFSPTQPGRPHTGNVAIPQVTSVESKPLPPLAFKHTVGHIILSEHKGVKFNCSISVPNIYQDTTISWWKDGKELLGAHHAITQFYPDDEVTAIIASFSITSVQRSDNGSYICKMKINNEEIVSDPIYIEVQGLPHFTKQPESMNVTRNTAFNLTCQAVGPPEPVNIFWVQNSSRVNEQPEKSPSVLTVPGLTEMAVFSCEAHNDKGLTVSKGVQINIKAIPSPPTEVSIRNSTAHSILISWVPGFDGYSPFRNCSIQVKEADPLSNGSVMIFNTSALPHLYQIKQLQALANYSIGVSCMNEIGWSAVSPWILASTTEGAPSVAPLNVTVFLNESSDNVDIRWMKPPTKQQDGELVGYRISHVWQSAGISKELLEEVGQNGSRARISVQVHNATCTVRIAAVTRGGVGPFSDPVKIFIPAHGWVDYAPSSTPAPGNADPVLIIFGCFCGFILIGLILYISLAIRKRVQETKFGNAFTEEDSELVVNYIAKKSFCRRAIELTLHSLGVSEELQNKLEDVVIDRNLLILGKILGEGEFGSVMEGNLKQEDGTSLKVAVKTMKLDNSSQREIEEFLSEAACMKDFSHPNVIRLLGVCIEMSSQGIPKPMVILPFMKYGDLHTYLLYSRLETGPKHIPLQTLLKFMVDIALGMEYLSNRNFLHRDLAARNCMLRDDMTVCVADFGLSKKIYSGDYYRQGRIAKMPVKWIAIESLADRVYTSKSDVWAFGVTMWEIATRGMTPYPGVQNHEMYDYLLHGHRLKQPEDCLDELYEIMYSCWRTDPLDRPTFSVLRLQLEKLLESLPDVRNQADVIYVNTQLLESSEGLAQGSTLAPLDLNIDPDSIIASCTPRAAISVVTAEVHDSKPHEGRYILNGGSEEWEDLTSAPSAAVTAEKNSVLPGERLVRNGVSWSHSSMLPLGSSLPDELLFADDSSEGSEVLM

[5] = molecular target: Ephrin type-A receptor 2 (Homo sapiens) (UniProt P29317); assay: Selectivity interaction (Kinase panel (literature)) EUB0001199aCl EPHA2; details: at 1 µM
Sequence of Ephrin type-A receptor 2 (Homo sapiens) (P29317 whole entry): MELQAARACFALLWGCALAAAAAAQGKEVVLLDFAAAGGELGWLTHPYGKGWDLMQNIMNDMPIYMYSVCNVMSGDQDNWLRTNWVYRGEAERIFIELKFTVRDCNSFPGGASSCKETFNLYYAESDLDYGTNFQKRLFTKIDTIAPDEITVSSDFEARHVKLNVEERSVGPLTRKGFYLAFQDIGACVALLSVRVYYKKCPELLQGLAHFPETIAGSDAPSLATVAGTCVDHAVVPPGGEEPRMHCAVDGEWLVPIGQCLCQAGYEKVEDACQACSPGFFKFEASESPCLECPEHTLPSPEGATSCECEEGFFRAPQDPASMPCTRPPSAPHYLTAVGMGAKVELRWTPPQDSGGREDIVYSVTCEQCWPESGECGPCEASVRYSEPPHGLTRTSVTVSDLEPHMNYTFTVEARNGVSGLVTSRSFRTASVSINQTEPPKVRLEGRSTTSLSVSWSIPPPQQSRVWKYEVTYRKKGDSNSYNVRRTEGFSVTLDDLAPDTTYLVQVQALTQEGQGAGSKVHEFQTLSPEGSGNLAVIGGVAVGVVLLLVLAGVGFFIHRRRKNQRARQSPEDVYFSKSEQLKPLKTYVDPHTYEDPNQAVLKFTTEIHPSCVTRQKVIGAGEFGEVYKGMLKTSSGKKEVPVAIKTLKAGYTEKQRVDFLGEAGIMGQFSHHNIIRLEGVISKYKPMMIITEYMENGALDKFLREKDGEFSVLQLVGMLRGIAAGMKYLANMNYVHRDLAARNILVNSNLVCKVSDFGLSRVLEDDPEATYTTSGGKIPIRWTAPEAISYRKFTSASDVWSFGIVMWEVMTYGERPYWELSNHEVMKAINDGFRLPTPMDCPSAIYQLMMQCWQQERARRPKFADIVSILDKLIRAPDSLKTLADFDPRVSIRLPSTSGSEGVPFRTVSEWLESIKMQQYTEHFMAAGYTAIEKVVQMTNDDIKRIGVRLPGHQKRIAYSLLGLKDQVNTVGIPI

[6] = molecular target: T2, Histone-lysine N-methyltransferase SETD7 (Homo sapiens) (UniProt Q8WTS6); assay: Selectivity interaction (Methyltransferase screen (radiometric assays, panel of 8 PRMTs, 21 protein lysine methyltransferases, 3 DNA methyltransferases, and one RNA methyltransferase)) EUB0000272b SETD7
T2 sequence (whole entry): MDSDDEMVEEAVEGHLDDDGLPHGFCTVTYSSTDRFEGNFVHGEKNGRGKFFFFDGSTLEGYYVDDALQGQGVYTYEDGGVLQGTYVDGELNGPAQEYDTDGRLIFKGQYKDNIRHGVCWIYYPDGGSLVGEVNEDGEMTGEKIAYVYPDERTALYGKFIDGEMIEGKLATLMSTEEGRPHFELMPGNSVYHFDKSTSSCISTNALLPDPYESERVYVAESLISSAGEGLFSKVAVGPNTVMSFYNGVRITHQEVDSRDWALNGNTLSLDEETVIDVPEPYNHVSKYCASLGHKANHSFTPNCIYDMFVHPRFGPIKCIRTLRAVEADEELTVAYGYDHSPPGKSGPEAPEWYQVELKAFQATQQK

[7] = molecular target: T3, Homeodomain-interacting protein kinase 4 (Homo sapiens) (UniProt Q8NE63); assay: Selectivity interaction (KinomeScan (DiscoverX)) EUB0000229b HIPK4; details: at 10 µM
T3 sequence (whole entry): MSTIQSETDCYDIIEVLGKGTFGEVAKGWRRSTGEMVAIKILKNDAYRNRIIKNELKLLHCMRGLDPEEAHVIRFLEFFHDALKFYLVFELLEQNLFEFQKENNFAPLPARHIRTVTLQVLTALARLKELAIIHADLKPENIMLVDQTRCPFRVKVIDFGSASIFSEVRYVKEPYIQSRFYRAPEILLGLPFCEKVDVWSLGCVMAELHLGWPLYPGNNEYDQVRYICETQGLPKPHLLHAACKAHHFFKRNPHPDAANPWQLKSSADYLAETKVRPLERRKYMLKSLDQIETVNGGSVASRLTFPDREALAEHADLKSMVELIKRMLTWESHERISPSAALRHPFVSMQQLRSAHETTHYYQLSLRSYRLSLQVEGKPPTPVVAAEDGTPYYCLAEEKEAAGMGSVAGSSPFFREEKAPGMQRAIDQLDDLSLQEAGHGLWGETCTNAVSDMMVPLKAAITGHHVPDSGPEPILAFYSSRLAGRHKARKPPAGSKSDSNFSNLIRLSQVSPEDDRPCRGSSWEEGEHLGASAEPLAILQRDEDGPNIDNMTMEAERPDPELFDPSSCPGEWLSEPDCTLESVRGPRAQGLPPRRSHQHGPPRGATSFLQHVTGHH

[8] = molecular target: T4, Dual specificity mitogen-activated protein kinase kinase 3 (Homo sapiens) (UniProt P46734); assay: Selectivity interaction (KinomeScan (DiscoverX)) EUB0000092b MAP2K3; details: at 10 µM
T4 sequence (whole entry): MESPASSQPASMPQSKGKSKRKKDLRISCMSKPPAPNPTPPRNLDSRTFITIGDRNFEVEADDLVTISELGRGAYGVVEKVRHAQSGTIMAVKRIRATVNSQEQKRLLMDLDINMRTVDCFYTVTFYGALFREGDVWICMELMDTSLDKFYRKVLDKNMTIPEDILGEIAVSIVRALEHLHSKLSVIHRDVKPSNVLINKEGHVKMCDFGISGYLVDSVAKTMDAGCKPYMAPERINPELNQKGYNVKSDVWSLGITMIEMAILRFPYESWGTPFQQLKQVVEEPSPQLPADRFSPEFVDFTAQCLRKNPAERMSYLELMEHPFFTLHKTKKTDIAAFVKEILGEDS

Aurora kinase B = Aurora kinase B (Homo sapiens, UniProt Q96GD4); assay: Selectivity interaction (KinomeScan (DiscoverX)) EUB0000045b AURKB
Sequence of Aurora kinase B (Q96GD4 whole entry): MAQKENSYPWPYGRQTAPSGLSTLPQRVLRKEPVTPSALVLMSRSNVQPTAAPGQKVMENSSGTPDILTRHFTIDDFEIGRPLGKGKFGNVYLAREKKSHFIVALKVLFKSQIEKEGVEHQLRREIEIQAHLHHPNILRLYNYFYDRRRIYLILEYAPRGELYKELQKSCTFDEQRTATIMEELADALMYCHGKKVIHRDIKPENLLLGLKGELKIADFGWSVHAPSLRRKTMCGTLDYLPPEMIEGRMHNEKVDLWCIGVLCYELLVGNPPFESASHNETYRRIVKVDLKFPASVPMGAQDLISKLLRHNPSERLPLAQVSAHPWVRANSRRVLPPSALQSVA

[9] = molecular target: Serine/threonine-protein kinase MARK1 (Homo sapiens) (UniProt Q9P0L2); assay: Selectivity interaction (SelectScreen profiling (Invitrogen)) EUB0000607a MARK1; details: at 2 µM
Sequence of Serine/threonine-protein kinase MARK1 (Homo sapiens) (Q9P0L2 whole entry, looked up): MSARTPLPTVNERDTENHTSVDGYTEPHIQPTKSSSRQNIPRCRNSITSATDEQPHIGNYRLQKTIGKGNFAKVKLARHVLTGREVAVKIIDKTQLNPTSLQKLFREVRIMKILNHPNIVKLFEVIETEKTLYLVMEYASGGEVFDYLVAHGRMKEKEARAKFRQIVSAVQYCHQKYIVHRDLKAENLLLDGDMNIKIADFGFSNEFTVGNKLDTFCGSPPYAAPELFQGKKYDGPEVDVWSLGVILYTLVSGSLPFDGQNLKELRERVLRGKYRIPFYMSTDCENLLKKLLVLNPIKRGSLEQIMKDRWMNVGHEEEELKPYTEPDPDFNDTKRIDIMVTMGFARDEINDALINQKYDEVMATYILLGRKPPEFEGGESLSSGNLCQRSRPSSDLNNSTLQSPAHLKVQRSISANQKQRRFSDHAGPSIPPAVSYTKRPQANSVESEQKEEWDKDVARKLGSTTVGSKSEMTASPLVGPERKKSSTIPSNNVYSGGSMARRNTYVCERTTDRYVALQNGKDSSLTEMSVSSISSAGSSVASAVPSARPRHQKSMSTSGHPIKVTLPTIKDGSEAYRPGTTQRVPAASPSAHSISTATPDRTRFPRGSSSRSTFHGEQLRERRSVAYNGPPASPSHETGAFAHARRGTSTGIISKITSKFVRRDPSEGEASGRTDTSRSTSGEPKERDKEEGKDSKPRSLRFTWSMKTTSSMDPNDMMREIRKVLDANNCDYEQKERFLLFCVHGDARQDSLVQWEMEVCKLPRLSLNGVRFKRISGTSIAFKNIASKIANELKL

Sequence of Tyrosine-protein kinase Fgr (Homo sapiens) (P09769 2-529 limits assumed): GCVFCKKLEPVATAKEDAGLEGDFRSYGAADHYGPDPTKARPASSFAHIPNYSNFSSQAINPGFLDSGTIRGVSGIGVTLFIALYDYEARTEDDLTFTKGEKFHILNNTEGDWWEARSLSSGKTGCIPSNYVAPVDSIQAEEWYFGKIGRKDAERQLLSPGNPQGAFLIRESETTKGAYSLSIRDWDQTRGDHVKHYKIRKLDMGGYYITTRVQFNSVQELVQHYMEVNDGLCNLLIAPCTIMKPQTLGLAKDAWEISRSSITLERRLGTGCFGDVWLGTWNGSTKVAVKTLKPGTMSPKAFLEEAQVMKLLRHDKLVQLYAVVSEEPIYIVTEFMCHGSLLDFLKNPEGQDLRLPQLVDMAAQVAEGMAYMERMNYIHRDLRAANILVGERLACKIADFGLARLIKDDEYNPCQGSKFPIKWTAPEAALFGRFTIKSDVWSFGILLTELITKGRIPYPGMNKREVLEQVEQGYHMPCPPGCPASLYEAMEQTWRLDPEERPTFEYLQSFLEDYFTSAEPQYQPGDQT

COc1cc(Nc2nc(C)cc(-c3cnn4nc(OC)ccc34)n2)cc(C(F)(F)F)c1
% of control [1]: 100%
% of control [2]: 94%

CN(C)C/C=C/C(=O)Nc1ccc(C(=O)N2CCCC(Nc3ncc(Cl)c(-c4c[nH]c5ccccc45)n3)C2)cc1 (configuration not stated)
% of control [3]: 85%

CC[C@@H]1[C@H](F)C(=O)N[C@@H]1COc1nccc2cc(C(N)=O)c(OC)cc12 [ZIMLOVISERTIB]
% of inhibition [4]: 3.13%

CN1Cc2nccc(-c3cn(C)nc3-c3ccc(F)cc3)c2C1=O
% of inhibition [5]: 4%

Cc1cc(C)cc([C@H]2c3cc(C)ccc3NC(=O)CN2C(=O)c2ccc(Br)s2)c1
% of activity ([6]; at 1 µM): 101%
% of activity ([6]; at 10 µM): 99%

COc1cc(N(C)c2ccnc3ccc(C(F)(F)F)cc23)cc(OC)c1OC
% binding [7]: 100%

CCC(=O)N1CCN(c2ccc(-n3c(=O)ccc4cnc5ccc(-c6cnc7ccccc7c6)cc5c43)cc2C(F)(F)F)CC1
% of control [8]: 80%

C=CC(=O)Nc1cc(-n2c(=O)ccc3cnc4ccc(-c5ccc(NS(C)(=O)=O)cc5)cc4c32)ccc1C
% of control (Aurora kinase B; at 1 µM): 100%
% of control (Aurora kinase B; at 10 µM): 75%

CNC(=O)Nc1ccc(-c2nc(N3CC4CCC(C3)O4)c3cnn(C4CCC5(CC4)OCCO5)c3n2)cc1
% of inhibition [9]: 13%
